Where a name gives a salt, the structure may show the parent alone. Read-outs that look alike come from different tables or passages of the source.
Legend:
[1] = tested on: cardiac microtissues; test: Targeted qRT-PCR of ATAD3C, CDH13, IL6, PTX3, SLC7A5, UCHL1 in cardiac microtissues; type: cell-based, human; details: Sorafenib 3.74 µM, Sunitinib 3.53 µM, Dasatinib 10.8 µM; for activity at 3.74 µM: Homo sapiens, read-out: % of control
Description: The experiment was performed with three technical replicates across 1-2 independent replicates.

[2] = tested on: cardiac microtissues; test: Ingenuity Pathway Analysis over-representation of differentially expressed genes (activation Z-score); type: cell-based, human; details: 48hr high; Group 2
[3] = tested on: cardiac microtissues; test: ATP depletion (CellTiter Glo Luminescent Cell Viability Assay) in cardiac microtissues; type: cell-based, human; details: the concentration is the IC30 of ATP depletion, or cell death caused
Description: Cellular ATP concentrations were also assessed using the CellTiter Glo® Luminescent Cell Viability Assay as per the manufacturer’s instructions (Promega).

[4] = tested on: cardiac microtissues; test: Transcriptomic profiling (mRNA-seq) and DESeq2 differential gene expression analysis in cardiac microtissues; details: absolute log2(Fold-Change) > 1, FDR p ≤ 0.05
[5] = ref FDA label, cited from earlier work
[6] = tested on: hiPS-CMs; parameters: method as in Harmer et al., 2012; details: 10 µM; ref Harmer et al., 2012; cited from earlier work

CNC(=O)c1cc(Oc2ccc(NC(=O)Nc3ccc(Cl)c(C(F)(F)F)c3)cc2)ccn1 [Sorafenib Tosylate]
activity at 3.74 µM ([1]; gene ATAD3C, Run 1): 85.7%
activity at 3.74 µM ([1]; gene CDH13, Run 1): 74%
activity at 3.74 µM ([1]; gene CDH13, Run 2): 113%
activity at 3.74 µM ([1]; gene IL6, Run 1): 35.3%
activity at 3.74 µM ([1]; gene IL6, Run 2): 6.7%
activity at 3.74 µM ([1]; gene PTX3, Run 1): 73.7%
activity at 3.74 µM ([1]; gene PTX3, Run 2): 74%
activity at 3.74 µM ([1]; gene SLC7A5, Run 1): 57%
activity at 3.74 µM ([1]; gene SLC7A5, Run 2): 50.2%
activity at 3.74 µM ([1]; gene UCHL1, Run 1): 66.2%
activity at 3.74 µM ([1]; gene UCHL1, Run 2): 70.9%
2^-ΔΔCt of Individual reps, Treated 1 ([1]; gene ATAD3C, Run 1): 0.8342
2^-ΔΔCt of Individual reps, Treated 2 ([1]; gene ATAD3C, Run 1): 0.8632
2^-ΔΔCt of Individual reps, Treated 3 ([1]; gene ATAD3C, Run 1): 0.8757
Average 2^-ΔΔCt, Treated ([1]; gene ATAD3C, Run 1): 0.8577
2^-ΔΔCt of Individual reps, Treated 1 ([1]; gene CDH13, Run 1): 0.6992
2^-ΔΔCt of Individual reps, Treated 2 ([1]; gene CDH13, Run 1): 0.7927
2^-ΔΔCt of Individual reps, Treated 3 ([1]; gene CDH13, Run 1): 0.7507
Average 2^-ΔΔCt, Treated ([1]; gene CDH13, Run 1): 0.7476
2^-ΔΔCt of Individual reps, Treated 1 ([1]; gene CDH13, Run 2): 1.515
2^-ΔΔCt of Individual reps, Treated 2 ([1]; gene CDH13, Run 2): 1.105
2^-ΔΔCt of Individual reps, Treated 3 ([1]; gene CDH13, Run 2): 0.7867
Average 2^-ΔΔCt, Treated ([1]; gene CDH13, Run 2): 1.136
2^-ΔΔCt of Individual reps, Treated 1 ([1]; gene IL6, Run 1): 0.3353
2^-ΔΔCt of Individual reps, Treated 2 ([1]; gene IL6, Run 1): 0.4238
2^-ΔΔCt of Individual reps, Treated 3 ([1]; gene IL6, Run 1): 0.3063
Average 2^-ΔΔCt, Treated ([1]; gene IL6, Run 1): 0.3551
2^-ΔΔCt of Individual reps, Treated 1 ([1]; gene IL6, Run 2): 0.169
2^-ΔΔCt of Individual reps, Treated 2 ([1]; gene IL6, Run 2): 0.0204
2^-ΔΔCt of Individual reps, Treated 3 ([1]; gene IL6, Run 2): 0.0311
Average 2^-ΔΔCt, Treated ([1]; gene IL6, Run 2): 0.07349
2^-ΔΔCt of Individual reps, Treated 1 ([1]; gene PTX3, Run 1): 0.6982
2^-ΔΔCt of Individual reps, Treated 2 ([1]; gene PTX3, Run 1): 0.8787
2^-ΔΔCt of Individual reps, Treated 3 ([1]; gene PTX3, Run 1): 0.6669
Average 2^-ΔΔCt, Treated ([1]; gene PTX3, Run 1): 0.7479
2^-ΔΔCt of Individual reps, Treated 1 ([1]; gene PTX3, Run 2): 0.9568
2^-ΔΔCt of Individual reps, Treated 2 ([1]; gene PTX3, Run 2): 0.4098
2^-ΔΔCt of Individual reps, Treated 3 ([1]; gene PTX3, Run 2): 0.8963
Average 2^-ΔΔCt, Treated ([1]; gene PTX3, Run 2): 0.7543
2^-ΔΔCt of Individual reps, Treated 1 ([1]; gene SLC7A5, Run 1): 0.5608
2^-ΔΔCt of Individual reps, Treated 2 ([1]; gene SLC7A5, Run 1): 0.6339
2^-ΔΔCt of Individual reps, Treated 3 ([1]; gene SLC7A5, Run 1): 0.5348
Average 2^-ΔΔCt, Treated ([1]; gene SLC7A5, Run 1): 0.5765
2^-ΔΔCt of Individual reps, Treated 1 ([1]; gene SLC7A5, Run 2): 0.6489
2^-ΔΔCt of Individual reps, Treated 2 ([1]; gene SLC7A5, Run 2): 0.4574
2^-ΔΔCt of Individual reps, Treated 3 ([1]; gene SLC7A5, Run 2): 0.4262
Average 2^-ΔΔCt, Treated ([1]; gene SLC7A5, Run 2): 0.5108
2^-ΔΔCt of Individual reps, Treated 1 ([1]; gene UCHL1, Run 1): 0.6452
2^-ΔΔCt of Individual reps, Treated 2 ([1]; gene UCHL1, Run 1): 0.6787
2^-ΔΔCt of Individual reps, Treated 3 ([1]; gene UCHL1, Run 1): 0.6738
Average 2^-ΔΔCt, Treated ([1]; gene UCHL1, Run 1): 0.6659
2^-ΔΔCt of Individual reps, Treated 1 ([1]; gene UCHL1, Run 2): 0.8432
2^-ΔΔCt of Individual reps, Treated 2 ([1]; gene UCHL1, Run 2): 0.6978
2^-ΔΔCt of Individual reps, Treated 3 ([1]; gene UCHL1, Run 2): 0.5876
Average 2^-ΔΔCt, Treated ([1]; gene UCHL1, Run 2): 0.7095
activation Z-score: Acute Phase Response Signaling [2]: -1.414
activation Z-score: Adrenomedullin signaling pathway [2]: 0.447
activation Z-score: Aryl Hydrocarbon Receptor Signaling [2]: -1.342
activation Z-score: Breast Cancer Regulation by Stathmin1 [2]: -2.111
activation Z-score: Cardiac Hypertrophy Signaling (Enhanced) [2]: -1.387
activation Z-score: Cell Cycle: G2/M DNA Damage Checkpoint Regulation [2]: -2.236
activation Z-score: Colorectal Cancer Metastasis Signaling [2]: -1.633
activation Z-score: Cyclins and Cell Cycle Regulation [2]: 1.342
activation Z-score: Endothelin-1 Signaling [2]: -2
activation Z-score: G-Protein Coupled Receptor Signaling [2]: -1.897
activation Z-score: HIF1Î± Signaling [2]: -0.447
activation Z-score: HMGB1 Signaling [2]: -1.897
activation Z-score: Hepatic Fibrosis Signaling Pathway [2]: -2.111
activation Z-score: IL-6 Signaling [2]: -1.667
activation Z-score: IL-8 Signaling [2]: -2
activation Z-score: ILK Signaling [2]: -1
activation Z-score: Immunogenic Cell Death Signaling Pathway [2]: -1
activation Z-score: Kinetochore Metaphase Signaling Pathway [2]: 1.886
activation Z-score: LXR/RXR Activation [2]: 2.333
activation Z-score: Leukocyte Extravasation Signaling [2]: -2
activation Z-score: MIF Regulation of Innate Immunity [2]: -2
activation Z-score: Macrophage Alternative Activation Signaling Pathway [2]: 2.236
activation Z-score: Osteoarthritis Pathway [2]: -2.714
activation Z-score: Oxytocin Signaling Pathway [2]: -2.236
activation Z-score: PPAR Signaling [2]: 2.236
activation Z-score: Pulmonary Fibrosis Idiopathic Signaling Pathway [2]: -1.897
activation Z-score: Pulmonary Healing Signaling Pathway [2]: -0.447
activation Z-score: Pyridoxal 5'-phosphate Salvage Pathway [2]: 2.236
activation Z-score: Regulation Of The Epithelial Mesenchymal Transition By Growth Factors Pathway [2]: -1.89
activation Z-score: Ribonucleotide Reductase Signaling Pathway [2]: -0.816
activation Z-score: Role of IL-17F in Allergic Inflammatory Airway Diseases [2]: -2
activation Z-score: Role of JAK family kinases in IL-6-type Cytokine Signaling [2]: -1.414
activation Z-score: Salvage Pathways of Pyrimidine Ribonucleotides [2]: 2.236
activation Z-score: Senescence Pathway [2]: -1.89
activation Z-score: Signaling by Rho Family GTPases [2]: -0.447
activation Z-score: TREM1 Signaling [2]: -2
activation Z-score: White Adipose Tissue Browning Pathway [2]: 0
activation Z-score: Wound Healing Signaling Pathway [2]: -2.714
Transcriptomic high concentration (µM) = IC30 of ATP depletion [3]: 3.74 µM
number of significant differentially expressed genes, 6hr high ([4]; 6 hr, high concentration): 13
number of significant differentially expressed genes, 6hr low ([4]; 6 hr, low concentration): 7
number of significant differentially expressed genes, 48hr high ([4]; 48 hr, high concentration): 268
number of significant differentially expressed genes, 48hr low ([4]; 48 hr, low concentration): 150
number of significant differentially expressed genes, 72hr high ([4]; 72 hr, high concentration): 204
number of significant differentially expressed genes, 72hr low ([4]; 72 hr, low concentration): 143
Structural cardiotoxin? ([5]; FDA label references heart failure or a decrease in left ventricular ejection fraction): Y
Functional cardiotoxin? ([5]; compound annotation): Y

COc1ccc(CCN(C)CCCC(C#N)(c2ccc(OC)c(OC)c2)C(C)C)cc1OC (stereo not shown) [verapamil]
inhibition of calcium transient signal in cardiomyocytes [6]: inhibit almost all of the calcium transient signal

From article PMC11213733, “Computational approaches identify a transcriptomic fingerprint of drug-induced structural cardiotoxicity” (Cell Biology and Toxicology, 2024)
